Patent US9402398B2, “Herbicidal compounds” (SYNGENTA PARTICIPATIONS AG, priority 2012, dated 2016)

What was measured:
Assay type in all cases: in vivo
[1] = test system: Alopecurus myosuroides (ALOMY); test: Herbicidal glasshouse test, post-emergence; conditions: post-emergence (sprayed after 8 days cultivation), 1000 g/h, evaluated after 13 days
Procedure: (§1) Seeds of a variety of test species are sown in standard soil in pots (Alopecurus myosuroides (ALOMY), Setaria faberi (SETFA), Echinochloa crus-galli (ECHCG), Solanum nigrum (SOLNI), Amaranthus retoflexus (AMARE), Ipomoea hederacea (IPOHE)). After cultivation for one day (pre-emergence) or after 8 days cultivation (post-emergence) under controlled conditions in a glasshouse (at 24/16° C., day/night; 14 hours light; 65% humidity), the plants are sprayed with an aqueous spray solution derived from the formulation of the technical active ingredient in acetone/water (50:50) solution containing 0.5% Tween 20 (polyoxyethelyene sorbitan monolaurate, CAS RN 9005-64-5). Compounds are applied at 1000 g/h. The test plants are then grown in a glasshouse under controlled conditions in a glasshouse (at 24/16° C., day/night; 14 hours light; 65% humidity) and watered twice daily. After 13 days for pre and post-emergence, the test is evaluated for the percentage damage caused to the plant. The biological activities are shown in the following table on a five point scale (5=80-100%; 4=60-79%; 3=40-59%; 2=20-39%; 1=0-19%).

[2] = test system: Amaranthus retoflexus (AMARE); test: Herbicidal glasshouse test, post-emergence; conditions: post-emergence (sprayed after 8 days cultivation), 1000 g/h, evaluated after 13 days
Procedure: as §1

[3] = test system: Echinochloa crus-galli (ECHCG); test: Herbicidal glasshouse test, post-emergence; conditions: post-emergence (sprayed after 8 days cultivation), 1000 g/h, evaluated after 13 days
Procedure: as §1

[4] = test system: Ipomoea hederacea (IPOHE); test: Herbicidal glasshouse test, post-emergence; conditions: post-emergence (sprayed after 8 days cultivation), 1000 g/h, evaluated after 13 days
Procedure: as §1

Setaria faberi (SETFA) [5] = test: Herbicidal glasshouse test, post-emergence; conditions: post-emergence (sprayed after 8 days cultivation), 1000 g/h, evaluated after 13 days
Procedure: as §1

Solanum nigrum (SOLNI) [6] = test: Herbicidal glasshouse test, post-emergence; conditions: post-emergence (sprayed after 8 days cultivation), 1000 g/h, evaluated after 13 days
Procedure: as §1

[7] = test system: Alopecurus myosuroides (ALOMY); test: Herbicidal glasshouse test, pre-emergence; conditions: pre-emergence (sprayed after cultivation for one day), 1000 g/h, evaluated after 13 days
Procedure: as §1

[8] = test system: Amaranthus retoflexus (AMARE); test: Herbicidal glasshouse test, pre-emergence; conditions: pre-emergence (sprayed after cultivation for one day), 1000 g/h, evaluated after 13 days
Procedure: as §1

[9] = test system: Echinochloa crus-galli (ECHCG); test: Herbicidal glasshouse test, pre-emergence; conditions: pre-emergence (sprayed after cultivation for one day), 1000 g/h, evaluated after 13 days
Procedure: as §1

[10] = test system: Ipomoea hederacea (IPOHE); test: Herbicidal glasshouse test, pre-emergence; conditions: pre-emergence (sprayed after cultivation for one day), 1000 g/h, evaluated after 13 days
Procedure: as §1

Setaria faberi (SETFA) [11] = test: Herbicidal glasshouse test, pre-emergence; conditions: pre-emergence (sprayed after cultivation for one day), 1000 g/h, evaluated after 13 days
Procedure: as §1

Solanum nigrum (SOLNI) [12] = test: Herbicidal glasshouse test, pre-emergence; conditions: pre-emergence (sprayed after cultivation for one day), 1000 g/h, evaluated after 13 days
Procedure: as §1

Cc1cc(C(=O)Nc2nnnn2C)c(=O)n(-c2ccccc2)n1 [Compound 1.001]
5 (5=80-100%): percentage damage caused to the plant, five point scale, POST Application ALOMY [1] | percentage damage caused to the plant, five point scale, POST Application ECHCG [3] | percentage damage caused to the plant, five point scale, POST Application SOLNI (Solanum nigrum (SOLNI) [6]) | percentage damage caused to the plant, five point scale, PRE Application ALOMY [7] | percentage damage caused to the plant, five point scale, PRE Application AMARE [8] | percentage damage caused to the plant, five point scale, PRE Application SOLNI (Solanum nigrum (SOLNI) [12])
4 (4=60-79%): percentage damage caused to the plant, five point scale, POST Application AMARE [2] | percentage damage caused to the plant, five point scale, POST Application IPOHE [4] | percentage damage caused to the plant, five point scale, PRE Application ECHCG [9]
3 (3=40-59%): percentage damage caused to the plant, five point scale, POST Application SETFA (Setaria faberi (SETFA) [5]) | percentage damage caused to the plant, five point scale, PRE Application IPOHE [10] | percentage damage caused to the plant, five point scale, PRE Application SETFA (Setaria faberi (SETFA) [11])

CCOc1ccc(-n2nc(C)cc(C(=O)Nc3nnnn3C)c2=O)cc1 [Compound 1.010]
5 (5=80-100%): percentage damage caused to the plant, five point scale, POST Application ALOMY [1] | percentage damage caused to the plant, five point scale, POST Application AMARE [2] | percentage damage caused to the plant, five point scale, POST Application ECHCG [3] | percentage damage caused to the plant, five point scale, POST Application IPOHE [4] | percentage damage caused to the plant, five point scale, POST Application SETFA (Setaria faberi (SETFA) [5]) | percentage damage caused to the plant, five point scale, POST Application SOLNI (Solanum nigrum (SOLNI) [6]) | percentage damage caused to the plant, five point scale, PRE Application ALOMY [7] | percentage damage caused to the plant, five point scale, PRE Application AMARE [8] | percentage damage caused to the plant, five point scale, PRE Application ECHCG [9] | percentage damage caused to the plant, five point scale, PRE Application SETFA (Setaria faberi (SETFA) [11]) | percentage damage caused to the plant, five point scale, PRE Application SOLNI (Solanum nigrum (SOLNI) [12])
4 (4=60-79%): percentage damage caused to the plant, five point scale, PRE Application IPOHE [10]

Cc1cc(C(=O)Nc2nnnn2C)c(=O)n(-c2ccccc2C)n1 [Compound 1.003]
3 (3=40-59%): percentage damage caused to the plant, five point scale, POST Application SETFA (Setaria faberi (SETFA) [5]) | percentage damage caused to the plant, five point scale, PRE Application SETFA (Setaria faberi (SETFA) [11])
5 (5=80-100%): percentage damage caused to the plant, five point scale, POST Application AMARE [2] | percentage damage caused to the plant, five point scale, POST Application ECHCG [3] | percentage damage caused to the plant, five point scale, POST Application IPOHE [4] | percentage damage caused to the plant, five point scale, POST Application SOLNI (Solanum nigrum (SOLNI) [6]) | percentage damage caused to the plant, five point scale, PRE Application AMARE [8] | percentage damage caused to the plant, five point scale, PRE Application ECHCG [9]
4 (4=60-79%): percentage damage caused to the plant, five point scale, POST Application ALOMY [1] | percentage damage caused to the plant, five point scale, PRE Application IPOHE [10] | percentage damage caused to the plant, five point scale, PRE Application SOLNI (Solanum nigrum (SOLNI) [12])
2 (2=20-39%): percentage damage caused to the plant, five point scale, PRE Application ALOMY [7]

Cc1cc(C(=O)Nc2nnnn2C)c(=O)n(-c2ccc(F)c(F)c2)n1 [Compound 1.013]
5 (5=80-100%): percentage damage caused to the plant, five point scale, POST Application ALOMY [1] | percentage damage caused to the plant, five point scale, POST Application AMARE [2] | percentage damage caused to the plant, five point scale, POST Application ECHCG [3] | percentage damage caused to the plant, five point scale, POST Application IPOHE [4] | percentage damage caused to the plant, five point scale, POST Application SETFA (Setaria faberi (SETFA) [5]) | percentage damage caused to the plant, five point scale, POST Application SOLNI (Solanum nigrum (SOLNI) [6]) | percentage damage caused to the plant, five point scale, PRE Application ALOMY [7] | percentage damage caused to the plant, five point scale, PRE Application AMARE [8] | percentage damage caused to the plant, five point scale, PRE Application ECHCG [9] | percentage damage caused to the plant, five point scale, PRE Application SETFA (Setaria faberi (SETFA) [11]) | percentage damage caused to the plant, five point scale, PRE Application SOLNI (Solanum nigrum (SOLNI) [12])
4 (4=60-79%): percentage damage caused to the plant, five point scale, PRE Application IPOHE [10]

Cc1cc(C(=O)Nc2nnnn2C)c(=O)n(-c2cccc(Br)c2)n1 [Compound 1.007]
3 (3=40-59%): percentage damage caused to the plant, five point scale, PRE Application IPOHE [10]
5 (5=80-100%): percentage damage caused to the plant, five point scale, POST Application ALOMY [1] | percentage damage caused to the plant, five point scale, POST Application AMARE [2] | percentage damage caused to the plant, five point scale, POST Application ECHCG [3] | percentage damage caused to the plant, five point scale, POST Application IPOHE [4] | percentage damage caused to the plant, five point scale, POST Application SETFA (Setaria faberi (SETFA) [5]) | percentage damage caused to the plant, five point scale, POST Application SOLNI (Solanum nigrum (SOLNI) [6]) | percentage damage caused to the plant, five point scale, PRE Application ALOMY [7] | percentage damage caused to the plant, five point scale, PRE Application AMARE [8] | percentage damage caused to the plant, five point scale, PRE Application ECHCG [9] | percentage damage caused to the plant, five point scale, PRE Application SETFA (Setaria faberi (SETFA) [11]) | percentage damage caused to the plant, five point scale, PRE Application SOLNI (Solanum nigrum (SOLNI) [12])

COCCn1nc(C)cc(C(=O)Nc2nnnn2C)c1=O [Compound 1.017]
5 (5=80-100%): percentage damage caused to the plant, five point scale, POST Application ALOMY [1] | percentage damage caused to the plant, five point scale, POST Application AMARE [2] | percentage damage caused to the plant, five point scale, POST Application ECHCG [3] | percentage damage caused to the plant, five point scale, POST Application IPOHE [4] | percentage damage caused to the plant, five point scale, POST Application SETFA (Setaria faberi (SETFA) [5]) | percentage damage caused to the plant, five point scale, POST Application SOLNI (Solanum nigrum (SOLNI) [6]) | percentage damage caused to the plant, five point scale, PRE Application ALOMY [7] | percentage damage caused to the plant, five point scale, PRE Application AMARE [8] | percentage damage caused to the plant, five point scale, PRE Application ECHCG [9] | percentage damage caused to the plant, five point scale, PRE Application IPOHE [10] | percentage damage caused to the plant, five point scale, PRE Application SETFA (Setaria faberi (SETFA) [11]) | percentage damage caused to the plant, five point scale, PRE Application SOLNI (Solanum nigrum (SOLNI) [12])

Cc1cc(C(=O)Nc2nnnn2C)c(=O)n(-c2ccc(Br)cc2)n1 [Compound 1.006]
5 (5=80-100%): percentage damage caused to the plant, five point scale, POST Application ALOMY [1] | percentage damage caused to the plant, five point scale, POST Application AMARE [2] | percentage damage caused to the plant, five point scale, POST Application ECHCG [3] | percentage damage caused to the plant, five point scale, POST Application SETFA (Setaria faberi (SETFA) [5]) | percentage damage caused to the plant, five point scale, POST Application SOLNI (Solanum nigrum (SOLNI) [6]) | percentage damage caused to the plant, five point scale, PRE Application ALOMY [7] | percentage damage caused to the plant, five point scale, PRE Application AMARE [8] | percentage damage caused to the plant, five point scale, PRE Application ECHCG [9] | percentage damage caused to the plant, five point scale, PRE Application SETFA (Setaria faberi (SETFA) [11]) | percentage damage caused to the plant, five point scale, PRE Application SOLNI (Solanum nigrum (SOLNI) [12])
4 (4=60-79%): percentage damage caused to the plant, five point scale, POST Application IPOHE [4] | percentage damage caused to the plant, five point scale, PRE Application IPOHE [10]

Cc1cc(C(=O)Nc2nnnn2C)c(=O)n(-c2ccc(F)cc2Br)n1 [Compound 1.020]
5 (5=80-100%): percentage damage caused to the plant, five point scale, POST Application ALOMY [1] | percentage damage caused to the plant, five point scale, POST Application AMARE [2] | percentage damage caused to the plant, five point scale, POST Application ECHCG [3] | percentage damage caused to the plant, five point scale, POST Application IPOHE [4] | percentage damage caused to the plant, five point scale, POST Application SETFA (Setaria faberi (SETFA) [5]) | percentage damage caused to the plant, five point scale, POST Application SOLNI (Solanum nigrum (SOLNI) [6]) | percentage damage caused to the plant, five point scale, PRE Application ALOMY [7] | percentage damage caused to the plant, five point scale, PRE Application AMARE [8] | percentage damage caused to the plant, five point scale, PRE Application ECHCG [9] | percentage damage caused to the plant, five point scale, PRE Application IPOHE [10] | percentage damage caused to the plant, five point scale, PRE Application SETFA (Setaria faberi (SETFA) [11]) | percentage damage caused to the plant, five point scale, PRE Application SOLNI (Solanum nigrum (SOLNI) [12])
